These results are taken from paper PMC10642967, “Identification of a carbohydrate recognition motif of purinergic receptors” (eLife, 2023).

For test [1], the target named is T1, human P2Y14 (Homo sapiens, UniProt Q15391).
T1 construct: HA (N); expressed in transfected cells; host or cells: HEK293
T1 sequence (Q15391 1-338): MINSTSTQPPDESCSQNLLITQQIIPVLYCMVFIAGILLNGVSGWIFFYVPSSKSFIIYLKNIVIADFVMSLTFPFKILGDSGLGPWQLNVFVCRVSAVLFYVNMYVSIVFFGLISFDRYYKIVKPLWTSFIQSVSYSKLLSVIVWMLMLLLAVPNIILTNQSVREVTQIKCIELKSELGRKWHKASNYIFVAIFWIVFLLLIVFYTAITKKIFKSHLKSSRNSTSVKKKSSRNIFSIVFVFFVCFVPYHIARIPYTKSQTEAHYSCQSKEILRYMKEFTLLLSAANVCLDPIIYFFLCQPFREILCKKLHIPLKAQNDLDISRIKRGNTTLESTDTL
Description: Intracellular Ca2+ mobilization, HEK293 co-transfected with P2Y14 wild-type and Gαqi5. In kind it is cell-based. The note with it: calcium mobilization, HEK293, P2Y14 WT + Gαqi5, mean ± SEM.

Test [2] addresses T2, P2Y14-K77A (Homo sapiens, UniProt Q15391, K77A).
T2 construct: HA (N); expressed in transfected cells; host or cells: HEK293
T2 sequence (Q15391 1-338 K77A): T1 sequence (Q15391 1-338) with K77A
As to the kind of experiment: Intracellular Ca2+ mobilization, HEK293 expressing P2Y14 K77A mutant. It is filed as cell-based. As to conditions: calcium mobilization, mean ± SEM.

Test [3] concerns the target T3, P2Y14-D81A (Homo sapiens, UniProt Q15391, D81A).
T3 construct: HA (N); expressed in transfected cells; host or cells: HEK293
T3 sequence (Q15391 1-338 D81A): T1 sequence (Q15391 1-338) with D81A
As to the kind of experiment: Intracellular Ca2+ mobilization, HEK293 expressing P2Y14 D81A mutant. In kind it is cell-based. The note with it: calcium mobilization, mean ± SEM.

Test [4] deals with T4, P2Y14-E278A (Homo sapiens, UniProt Q15391, E278A).
T4 construct: HA (N); expressed in transfected cells; host or cells: HEK293
T4 sequence (Q15391 1-338 E278A): T1 sequence (Q15391 1-338) with E278A
As to the kind of experiment: Intracellular Ca2+ mobilization, HEK293 expressing P2Y14 E278A mutant. In kind it is cell-based. As to conditions: calcium mobilization, mean ± SEM.

In test [5] the target is T5, P2Y14-K277A (Homo sapiens, UniProt Q15391, K277A).
T5 sequence (Q15391 1-338 K277A): T1 sequence (Q15391 1-338) with K277A
As to the kind of experiment: cell-based.

The target in test [6] is T6, human P2Y12 (Homo sapiens, UniProt Q9H244).
T6 construct: HA (N); expressed in transfected cells; host or cells: HEK293
T6 sequence (Q9H244 whole entry): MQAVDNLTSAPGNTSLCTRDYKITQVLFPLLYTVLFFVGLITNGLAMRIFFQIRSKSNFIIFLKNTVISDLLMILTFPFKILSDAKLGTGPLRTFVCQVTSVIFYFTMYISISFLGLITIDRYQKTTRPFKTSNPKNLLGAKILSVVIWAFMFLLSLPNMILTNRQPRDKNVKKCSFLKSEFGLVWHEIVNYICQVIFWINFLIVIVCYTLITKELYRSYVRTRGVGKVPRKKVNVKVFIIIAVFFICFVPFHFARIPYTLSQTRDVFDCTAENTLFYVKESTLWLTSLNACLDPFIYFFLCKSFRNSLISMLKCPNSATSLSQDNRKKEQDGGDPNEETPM
As to the kind of experiment: Intracellular Ca2+ mobilization, HEK293 co-transfected with P2Y12 wild-type and Gαqi5. In kind it is cell-based. As to conditions: calcium mobilization, HEK293, P2Y12 WT + Gαqi5, mean ± SEM. How it is done:
(§1) Intracellular Ca^2+ assays were carried out as follows.

The target of test [7] is T7, P2Y12-K80A (Homo sapiens, UniProt Q9H244, K80A).
T7 construct: HA (N); expressed in transfected cells; host or cells: HEK293
T7 sequence (Q9H244 whole entry K80A): as the sequence (Q9H244 whole entry) above, with K80A counted along it
As to the kind of experiment: Intracellular Ca2+ mobilization, HEK293 expressing P2Y12 K80A mutant. It is filed as cell-based. The note with it: calcium mobilization, mean ± SEM. How it is done: as §1

In test [8] the target is T8, P2Y12-D84A (Homo sapiens, UniProt Q9H244, D84A).
T8 construct: HA (N); expressed in transfected cells; host or cells: HEK293
T8 sequence (Q9H244 whole entry D84A): as the sequence (Q9H244 whole entry) above, with D84A counted along it
As to the kind of experiment: Intracellular Ca2+ mobilization, HEK293 expressing P2Y12 D84A mutant. It is filed as cell-based. As to conditions: calcium mobilization, mean ± SEM. How it is done:
as §1

Test [9] concerns the target T9, P2Y12-F277A (Homo sapiens, UniProt Q9H244, F277A).
T9 construct: HA (N); expressed in transfected cells; host or cells: HEK293
As to the kind of experiment: Intracellular Ca2+ mobilization, HEK293 expressing P2Y12 F277A mutant. The note with it: calcium mobilization, mean ± SEM. It is filed as cell-based. How it is done: as §1

For test [10], the target named is T10, P2Y12-K280A (Homo sapiens, UniProt Q9H244, K280A).
T10 construct: HA (N); expressed in transfected cells; host or cells: HEK293
T10 sequence (Q9H244 whole entry K280A): as the sequence (Q9H244 whole entry) above, with K280A counted along it
Description: Intracellular Ca2+ mobilization, HEK293 expressing P2Y12 K280A mutant. In kind it is cell-based. The note with it: calcium mobilization, mean ± SEM. How it is done:
as §1

The target in test [11] is T11, P2Y12-E281A (Homo sapiens, UniProt Q9H244, E281A).
T11 construct: HA (N); expressed in transfected cells; host or cells: HEK293
T11 sequence (Q9H244 whole entry E281A): as the sequence (Q9H244 whole entry) above, with E281A counted along it
As to the kind of experiment: Intracellular Ca2+ mobilization, HEK293 expressing P2Y12 E281A mutant. In kind it is cell-based. As to conditions: calcium mobilization, mean ± SEM. How it is done:
as §1

Where a chain is given by its changes, count along the chain named.

T9 sequence (Q9H244 whole entry F277A): as the sequence (Q9H244 whole entry) above, with F277A counted along it

Take `O=C(O)C1OC(OP(=O)(O)OP(=O)(O)OCC2OC(n3ccc(=O)[nH]c3=O)C(O)C2O)C(O)C(O)C1O` (stereo not shown) [UDP-GlcA, UDP-glucuronic acid]: the EC50 in test [1] was 0.0599 ± 0.0048 µM; in [2], over 3 µM; in test [3], 0.172 ± 0.0098 µM; in test [4], 0.0382 ± 0.0022 µM; in test [5] it was over 3 µM.
Take `CC(=O)N[C@H]1[C@@H](OP(=O)(O)OP(=O)(O)OC[C@H]2O[C@@H](n3ccc(=O)[nH]c3=O)[C@H](O)[C@@H]2O)O[C@H](CO)[C@@H](O)[C@@H]1O` [UDP-GlcNAc, UDP-N-acetylglucosamine]: the 50% effective concentration (EC50) in [1] is 0.184 ± 0.0118 µM; in test [2], over 3 µM; in test [3], 3 ± 0.174 µM; in [4], 0.624 ± 0.102 µM; in test [5], 0.549 ± 0.0744 µM.
As for `Nc1ncnc2c1ncn2C1OC(COP(=O)(O)OP(=O)(O)OC2OC(CO)C(O)C(O)C2O)C(O)C1O` (stereo not shown) [ADP-Glc, ADP-glucose], the concentration for a half-maximal effect (EC50) is 3.4 ± 0.4 µM in test [6]; 96.9 ± 14.4 µM in test [7]; 29.3 ± 1.2 µM in [8]; 15.4 ± 1.1 µM in [9]; 41.8 ± 3 µM in test [10]; 75.3 ± 10.1 µM in [11].
For the compound `Nc1ncnc2c1ncn2C1OC(COP(=O)(O)OP(=O)(O)OC2OC(C(=O)O)C(O)C(O)C2O)C(O)C1O` (stereo not shown) [ADP-GlcA, ADP-glucuronic acid], the EC50 in test [6] came to 1.3 ± 0.1 µM; in test [7] it was 35.2 ± 0.5 µM; in test [8], 9.4 ± 0.3 µM; in test [9] it was 5 ± 0.4 µM; in [10] it was 18.1 ± 3.3 µM; in test [11], 28.2 ± 4.1 µM.
In the case of `Nc1ncnc2c1ncn2C1OC(COP(=O)(O)OP(=O)(O)OC2OC(CO)C(O)C(O)C2O)C(O)C1O` (stereo not shown) [ADP-Man, ADP-mannose], the EC50 in [6] was 12.3 ± 0.9 µM; in test [7] it was over 150 µM; in test [8], over 150 µM; in test [9], 128 ± 17.6 µM; in test [10] it was over 150 µM; in test [11], over 150 µM.
